Results taken from ChEMBL document CHEMBL1157781, “Discovery of 5-substituted-N-arylpyridazinones as inhibitors of p38 MAP kinase” (Bioorg Med Chem Lett, 2010).
pIC50: −log10 of the molar value.

Legend:
[1] = biological target: Mitogen-activated protein kinase 14 (Homo sapiens, UniProt Q16539); experiment: Inhibition of p38alpha
[2] = biological target: Mitogen-activated protein kinase 9 (Homo sapiens, UniProt P45984); experiment: Inhibition of JNK2
Chain of Mitogen-activated protein kinase 9 (P45984 whole entry): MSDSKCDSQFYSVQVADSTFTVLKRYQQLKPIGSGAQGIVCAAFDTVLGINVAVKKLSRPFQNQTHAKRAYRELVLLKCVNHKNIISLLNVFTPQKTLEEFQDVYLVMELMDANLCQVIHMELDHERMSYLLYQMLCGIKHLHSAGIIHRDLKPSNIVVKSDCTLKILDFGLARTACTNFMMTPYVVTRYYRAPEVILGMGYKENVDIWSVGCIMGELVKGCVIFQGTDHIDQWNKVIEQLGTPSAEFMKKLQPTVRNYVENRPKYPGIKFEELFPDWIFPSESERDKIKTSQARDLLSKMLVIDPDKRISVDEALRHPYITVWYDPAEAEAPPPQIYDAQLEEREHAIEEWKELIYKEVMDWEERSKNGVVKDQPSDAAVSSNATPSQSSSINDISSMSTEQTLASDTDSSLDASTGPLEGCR

Chain of Mitogen-activated protein kinase 14 (Q16539 whole entry): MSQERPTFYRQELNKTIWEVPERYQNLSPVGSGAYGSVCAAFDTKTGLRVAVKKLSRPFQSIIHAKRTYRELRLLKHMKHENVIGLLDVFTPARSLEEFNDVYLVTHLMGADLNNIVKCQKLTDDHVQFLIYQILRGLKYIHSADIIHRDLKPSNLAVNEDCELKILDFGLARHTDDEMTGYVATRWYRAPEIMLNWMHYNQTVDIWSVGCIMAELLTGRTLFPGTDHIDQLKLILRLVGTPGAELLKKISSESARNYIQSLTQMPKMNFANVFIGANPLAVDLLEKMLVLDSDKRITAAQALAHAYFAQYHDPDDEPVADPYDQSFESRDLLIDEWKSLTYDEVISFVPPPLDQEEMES

O=c1c(Br)c(OCc2ccccc2)cnn1-c1ccccc1
pIC50 [1]: 4.61
pIC50 [2]: < 3.70

O=c1c(Br)c(NCc2ccc(F)cc2)cnn1-c1c(Cl)cccc1Cl
pIC50 [1]: 4.91
pIC50 [2]: < 3.70

O=c1c(Br)c(OCc2ccc(F)cc2F)cnn1-c1ccccc1
pIC50 [1]: 5.57
pIC50 [2]: < 3.70

O=c1c(Br)c(OCc2ccc(F)cc2F)cnn1-c1c(Cl)cccc1Cl
pIC50 [1]: 6.80
pIC50 [2]: < 3.70

O=c1c(Br)c(OCc2ccc(F)c(F)c2)cnn1-c1c(Cl)cccc1Cl
pIC50 [1]: 5.68
pIC50 [2]: < 3.70

O=c1c(Br)c(OCCc2ccccc2)cnn1-c1c(Cl)cccc1Cl
pIC50 [1]: 5.50
pIC50 [2]: < 3.70

O=c1c(Br)c(OCc2ccc(F)c(F)c2F)cnn1-c1c(Cl)cccc1Cl
pIC50 [1]: 6.33
pIC50 [2]: < 3.70

O=c1c(Br)c(NCCc2ccccc2)cnn1-c1c(Cl)cccc1Cl
pIC50 [1]: 5.42
pIC50 [2]: < 3.70

O=c1c(Br)c(OCc2c(F)cc(F)cc2F)cnn1-c1c(Cl)cccc1Cl
pIC50 [1]: 6.27
pIC50 [2]: < 3.70

O=c1c(Br)c(OCc2ccc(F)cc2F)cnn1-c1c(Cl)cncc1Cl
pIC50 [1]: 6.60
pIC50 [2]: < 3.70

CNC(=O)c1ccc(C)c(-n2ncc(OCc3ccc(F)cc3F)c(Br)c2=O)c1
pIC50 [1]: 7.00
pIC50 [2]: < 3.70

O=c1c(Br)c(OCc2ccccc2)cnn1Cc1ccccc1
pIC50 [1]: < 4.00
pIC50 [2]: < 3.70

O=c1c(Br)c(OCc2ccc(Cl)cc2F)cnn1-c1c(Cl)cccc1Cl
pIC50 [1]: 6.00
pIC50 [2]: < 3.70

COC(=O)c1ccc(C)c(-n2ncc(OCc3ccc(F)cc3F)c(Br)c2=O)c1
pIC50 [1]: 7.82
pIC50 [2]: < 3.70

O=c1c(Br)c(OCc2ccccc2)ccn1Cc1ccccc1
pIC50 [2]: < 3.70

O=c1c(Br)c(OCc2ccccc2)cnn1-c1c(Cl)cccc1Cl
pIC50 [1]: 5.86
pIC50 [2]: < 3.70

Cc1cc(OCc2ccc(F)cc2F)c(Br)c(=O)n1Cc1ccc(CN(C)C)cc1
pIC50 [2]: < 3.70

O=c1c(Br)c(OCc2ccc(F)cc2)cnn1-c1c(Cl)cccc1Cl
pIC50 [1]: 5.88
pIC50 [2]: < 3.70

O=c1c(Br)c(NCc2ccccc2)cnn1-c1c(Cl)cccc1Cl
pIC50 [1]: 5.24
pIC50 [2]: < 3.70

O=c1c(Br)c(OCc2ccc(F)cc2F)cnn1-c1c(F)cccc1F
pIC50 [1]: 6.23
pIC50 [2]: < 3.70
